Measurements published in patent publication US5585382A, “Polycyclic and heterocyclic chromophores for bis-imide tumoricidals” (The DuPont Merck Pharmaceutical Company, priority 1995, dated 1996).
Values after ≈ are worked out from the molar mass of the structure shown. Where two headings read alike, the source gives them in different places.

What was measured:
[1] = test system: Clone A human colon cancer cells; assay: In vitro growth inhibition of Clone A cells (MTT, 72 hr); type: cell-based; details: read-out: Clone A IC50
Description: (§1) The reagents for tissue culture were purchased from GIBCO (Grand Island, N.Y.). 5-Dimethylthiazol-2-yl)-2,5-diphenyl tetrazolium bromide (MTT) was purchased from Sigma Chemical Company (St. Louis, Mo.). All agents were prepared as 2 mg/ml stock solutions in DMSO. MTT was prepared as a 1 mg/ml stock solution in Dulbecco's phosphate buffered saline (PBS). All stocks were stored frozen in the dark at -20° C.
(§2) Clone A human colon cancer cells were isolated from the heterogeneous DLD-1 colon tumor line and maintained as previously described (Dexter, D. L.; Barbosa, J. A.; Calabresi, P. Cancer Research 1979, 39, 1020; Dexter, D. L.; Spremulli, E. M.; Fligiel, A.; Barbosa, J. A.; Vogel, R.; Van Vorhees, A.; Calabresi, P. Am. J. Med. 1981, 71, 949.). Murine leukemia L1210 cells were maintained in RPMI-L medium as described (Chen, S.-F.; Ruben, R. L.; Dexter, D. L. Cancer Research 1986, 46, 5014.). All cell lines were incubated at 37° C. in a humidified atmosphere of 5% CO2 -95% air.
(§3) Exponentially growing L1210 cells (1×10^3), or Clone A cells (8×10^2) in 0.1 ml medium were seeded in a 96-well microtiter plate on day 0. On day one, 0.1 ml aliquots of medium containing graded concentrations of test compounds were added to the cell plates. After incubation at 37° C. in a humidified incubator for 72 hr, the plates containing L1210 cells were centrifuged briefly and 100 μl of the growth medium was removed. Cell cultures were incubated with 50 μl of MTT for 4 h at 37° C. (12). The resulting purple formazan precipitate was solubilized with 200 μl of 0.04 N HCl in isopropyl alcohol. Absorbance was read in a Titertek Multiskan MCC scanning well spectrophotometer (Flow Laboratories) at a test wavelength of 570 nm and a reference wavelength of 630 nm. The absorbances were stored on a floppy disk on an IBM-XT and uploaded onto a VAX computer. IC50 values were determined by a computer program that fit the data to the following equation:
(§4) Y=((Am -Ao)/(1+(X/IC50)^n))+Ao
(§5) where Am =absorbance of the control cells; Ao =absorbance of the cells in the presence of highest compound concentration; Y=observed absorbance; X=compound concentration; IC50 =dose of compound that inhibits the number of population doublings of cells to one half that of the number of population doublings of the control cells; and n equals the slope of the straight portion of the curve.
(§6) The values reported in the table are from at least one experiment performed in eight replicates. If more than one experiment was performed, the number reported is the average of all the trials

[2] = test system: Murine leukemia L1210 cells; assay: In vitro growth inhibition of L1210 cells (MTT, 72 hr); type: cell-based; details: Mus musculus, read-out: L1210 IC50
Description: as §1, §2, §3, §4, §5, §6

Row | SMILES | IC50 ([1]; Clone A cells, 72 hr, MTT) | IC50 ([2]; L1210 cells, 72 hr, MTT) | IC50 ([1]; 72 h) | IC50 ([2]; L1210, 72 h)
1 | CS(=O)(=O)O.Cc1cnc2c(c1)cc1c3c(cccc32)C(=O)N(CCCCNCCCN2C(=O)c3cccc4c3c(cc3cc(C)cnc34)C2=O)C1=O [Example 10, 4-[3-(7-Methyl-5-azaphenanthrene-1,10-dicarboximido)propylamino]-1-(7-methyl-5-azaphenanthrene-1, 10-dicarboximido)butane Hydromethanesulfonate] | 0.346 µg/mL | 0.588 µg/mL | – | –
2 | CS(=O)(=O)O.O=C1c2cccc3c2c(cc2cc([N+](=O)[O-])cnc23)C(=O)N1CCCCNCCCN1C(=O)c2cccc3c2c(cc2cc([N+](=O)[O-])cnc23)C1=O [Example 11, 4-[3-(7-Nitro-5-azaphenanthrene-1,10dicarboximido)propylamino]-1-(7-nitro-5-azaphenanthrene-1, 10-dicarboximido)butane Hydromethanesulfonate] | – | – | 0.543 µg/mL | 0.171 µg/mL
3 | O=C1c2cc([N+](=O)[O-])cc3c2c(cc2cnccc23)C(=O)N1CCCCNCCCN1C(=O)c2cc([N+](=O)[O-])cc3c2c(cc2cnccc23)C1=O [Example 16, 4-[3-(3-Nitro-7-azaphenanthrene-1,10-dicarboximido)propylamino]-1-(3-nitro-7-azaphenanthrene-1, 10-dicarboximido)butane 2.6-Hydromethanesulfonate] | – | – | 0.002 µg/mL (≈ 2.87 nM) | < 0.01 µg/mL
4 | CS(=O)(=O)O.Cc1ccc2cc3c4c(cccc4c2c1)C(=O)N(CCCCNCCCN1C(=O)c2cccc4c2c(cc2ccc(C)cc24)C1=O)C3=O [Example 41, 4-[3-(6-Methylphenanthrene-1,10-dicarboximido)propylamino]-1-(6-methylphenanthrene-1, 10-dicarboximido)butane Hydromethanesulfonate] | – | – | 0.804 µg/mL | 0.317 µg/mL
5 | CS(=O)(=O)O.O=C1c2cccc3c2c(c(C(F)(F)F)c2ccccc23)C(=O)N1CCCCNCCCN1C(=O)c2cccc3c2c(c(C(F)(F)F)c2ccccc23)C1=O [Example 45, 4-(3-[9-(Trifluoromethyl)phenanthrene-1,10-dicarboximido]propylamino)-1-[9-(trifluoromethyl)phenanthrene-1,10-dicarboximido]butane Hydromethanesulfonate] | – | – | 1.05 µg/mL | 0.3 µg/mL
6 | O=C1c2cccc3c2c(c(-c2ccccc2)c2ccccc23)C(=O)N1CCCCNCCCN1C(=O)c2cccc3c2c(c(-c2ccccc2)c2ccccc23)C1=O [Example 48, 4-[3-(9-Phenylphenanthrene-1,10-dicarboximido)propylamino]-1-(9-phenylphenanthrene-1, 10-docarboximido)butane Hydromethanesulfonate] | – | – | 1.46 µg/mL | 0.773 µg/mL
7 | CS(=O)(=O)O.N#Cc1ccc2cc3c4c(cccc4c2c1)C(=O)N(CCCCNCCCN1C(=O)c2cccc4c2c(cc2ccc(C#N)cc24)C1=O)C3=O [Example 49, 4-[3-(6-Cyanophenanthrene-1,10-dicarboximido)propylamino]-1-(6-cyanophenanthrene-1, 10-dicarboximido)butane Hydromethanesulfonate] | – | – | 0.007 µg/mL | 0.026 µg/mL
8 | CS(=O)(=O)O.O=C1c2cc([N+](=O)[O-])cc3c2c(cc2ccccc23)C(=O)N1CCCCNCCCN1C(=O)c2cc([N+](=O)[O-])cc3c2c(cc2ccccc23)C1=O [Example 50, 4-[3-(3-Nitrophenanthrene-1,10-dicarboximido)propylamino]-1-(3-nitrophenanthrene-1, 10-dicarboximido)butane Hydromethanesulfonate] | – | – | 0.032 µg/mL | 0.126 µg/mL
9 | CS(=O)(=O)O.O=C1c2cccc3c2c(cc2cccc([N+](=O)[O-])c23)C(=O)N1CCCCNCCCN1C(=O)c2cccc3c2c(cc2cccc([N+](=O)[O-])c23)C1=O [Example 51, 4-[3-(5-Nitrophenanthrene-1,10-dicarboximido)propylamino]-1-(5-nitrophenanthrene-1, 10-dicarboximido)butane Hydromethanesulfonate] | – | – | 0.747 µg/mL | 0.205 µg/mL
10 | CS(=O)(=O)O.CS(=O)(=O)O.C[C@@H](CNCCNC[C@H](C)N1C(=O)c2cccc3c2c(cc2ccc([N+](=O)[O-])cc23)C1=O)N1C(=O)c2cccc3c2c(cc2ccc([N+](=O)[O-])cc23)C1=O [Example 52, (S,S)-1,2-bis-[2-(6-Nitrophenanthrene-1,10-dicarboximido)propylamino]ethane Dihydromethanesulfonate] | – | – | 0.044 µg/mL | 0.082 µg/mL
11 | CS(=O)(=O)O.CS(=O)(=O)O.CS(=O)(=O)O.Nc1cc2c3c(cc4ccccc4c3c1)C(=O)N(CCCCNCCCN1C(=O)c3cc(N)cc4c3c(cc3ccccc34)C1=O)C2=O [Example 53, 4-[3-(3-Aminophenanthrene-1,10-dicarboximido)propylamino]-1-(3-aminophenanthrene-1,10-dicarboximido)butane Trihydromethanesulfonate] | – | – | 0.755 µg/mL | 0.453 µg/mL
12 | COc1ccc2c(c1)cc1c3c(cccc32)C(=O)N(CCCCNCCCN2C(=O)c3cccc4c3c(cc3cc(OC)ccc34)C2=O)C1=O.CS(=O)(=O)O [Example 54, 4-[3-(7-Methoxyphenanthrene-1,10-dicarboximido)propylamino]-1-(7-methoxyphenanthrene-1,10-dicarboximido)butane Hydromethanesulfonate] | – | – | 0.615 µg/mL | 0.198 µg/mL
13 | COc1cc2cc3c4c(cccc4c2cc1OC)C(=O)N(CCCCNCCCN1C(=O)c2cccc4c2c(cc2cc(OC)c(OC)cc24)C1=O)C3=O.CS(=O)(=O)O [Example 55, 4-[3-(6,7-Dimethoxyphenanthrene-1,10-dicarboximido)propylamino]-1-(6,7-dimethoxyphenanthrene-1,10-dicarboximido)butane Hydromethanesulfonate] | – | – | 5.43 µg/mL | 0.356 µg/mL
14 | CS(=O)(=O)O.CS(=O)(=O)O.Cc1nc2cc3c4c(cccc4c2s1)C(=O)N([C@H](C)CNCCNC[C@@H](C)N1C(=O)c2cccc4c2c(cc2nc(C)sc24)C1=O)C3=O [Example 83, (R,R) -1,2-bis-[2-(2-Methylnaphtho[2,1-d]thiazole-5,6-dicarboximido)propylamino]ethane Dihydromethanesulfonate] | 0.004 µg/mL | < 0.01 µg/mL | – | –
15 | CS(=O)(=O)O.O=C1c2cccc3c2c(cc2occc23)C(=O)N1CCCCNCCCN1C(=O)c2cccc3c2c(cc2occc23)C1=O [Example 90, 4-[3-(Naphtho[2,1-b]furan-5,6-dicarboximido)propylamino]-1-(naphtho[2,1-b]furan-5,6-dicarboximido)butane Hydromethanesulfonate] | 0.017 µg/mL | 0.013 µg/mL | – | –
16 | CS(=O)(=O)O.CS(=O)(=O)O.C[C@H](CNCCNC[C@@H](C)N1C(=O)c2cccc3c4c(cc(c23)C1=O)C(=O)c1ccccc1C4=O)N1C(=O)c2cccc3c4c(cc(c23)C1=O)C(=O)c1ccccc1C4=O [Example 101, (R,R)-1,2-bis-[2-(7,12-Dihydro-7,12-dioxobenz[a]anthracene-4,5-dicarboximido)propylamino]ethane Dihydromethanesulfonate] | 0.05 µg/mL | 0.105 µg/mL | – | –
17 | CS(=O)(=O)O.CS(=O)(=O)O.C[C@H](CNCCNC[C@@H](C)N1C(=O)c2cccc3c2c(cc2cccnc23)C1=O)N1C(=O)c2cccc3cc([N+](=O)[O-])cc(c23)C1=O [Example 110, (R,R)-1-[2-(5-Azaphenanthrene-1,10-dicarboximido)propylamino]-2-[2-(3-nitronaphthalene-1,8-dicarboximido)propylamino]ethane Dihydromethanesulfonate] | 0.006 µg/mL | 0.183 µg/mL | – | –
18 | CS(=O)(=O)O.CS(=O)(=O)O.C[C@H](CNCCNC[C@@H](C)N1C(=O)c2cccc3c2c(cc2cnccc23)C1=O)N1C(=O)c2cccc3cc([N+](=O)[O-])cc(c23)C1=O [Example 113, (R,R)-1-[2-(7-Azaphenanthrene-1,10-dicarboximido)propylamino]-2-[2-(3-nitronaphthalene-1,8-dicarboximido)propylamino]ethane Dihydromethanesulfonate] | 0.0003 µg/mL | 0.008 µg/mL | – | –
